Data reported in patent US10233207B2, “Crystalline form of nicotinamide riboside” (W. R. Grace & Co.—Conn., priority 2014, dated 2019).

Key:
[1] = high-fat diet supplemented with nicotinamide riboside; cited from earlier work
[2] = Hygroscopicity / Dynamic Vapor Sorption (DVS) moisture sorption isotherm; assay type: physicochemical
Method: Moisture sorption isotherms were collected on a DVS-1 system from Surface Measurement Systems UK Ltd. (London, UK) for both crystalline Form I of nicotinamide riboside chloride and for the amorphous form of nicotinamide riboside chloride. Sample sizes were between 9.7 and 14.3 mg of solid material. The relative humidity was started with an initial drying step going from 40% RH to 0% RH. Subsequently, the relative humidity was increased to 95% (sorption), decreased to 0% RH (desorption) and increased again to 95% RH (sorption). Weight equilibration was set per step with a holding time of 1 hour (10% relative humidity step). Individual samples sizes were 12.6568 mg for crystalline Form I and 9.6799 mg for the amorphous sample. FIG. 8A provides a DVS change in mass plot for a sample of the crystalline Form I of nicotinamide riboside chloride, and FIG. 8B provides a DVS isotherm plot for a sample of the crystalline Form I of nicotinamide riboside chloride. FIG. 9A provides a DVS change in mass plot for a sample of the amorphous form of nicotinamide riboside chloride, and FIG. 9B provides a DVS isotherm plot for a sample of the amorphous form of nicotinamide riboside chloride.
FIG. 10 provides a comparison of the sorption curve for crystalline Form I of nicotinamide riboside chloride with the sorption curve for the amorphous sample. […] Even at 70% relative humidity, the weight of the crystalline sample had not increased by more than about 1.0%. These characteristics of the crystalline Form I are advantageous for the handling of the material overall and represent the ability to remain stable over a greater range of working conditions relative to the amorphous form.

[3] = assay type: physicochemical
Description: The instant crystalline Form I of nicotinamide riboside chloride may be provided in one of several different morphologies. For example, the crystalline material may exist in a morphology having a bulk density of about 0.25 to about 0.4 g/mL, or may exist in a morphology having a bulk density of about 0.40 to about 0.65 g/mL. The present disclosure also relates to mixtures of at least these two morphologies in any proportion. FIG. 3A depicts a Scanning Electron Microscopy (SEM) image of the inventive crystalline nicotinamide riboside chloride in a morphology having a bulk density of about 0.25 to about 0.4 g/mL, and FIG. 3B depicts a Scanning Electron Microscopy (SEM) image of the inventive crystalline nicotinamide riboside chloride in a morphology having a bulk density of about 0.40 to about 0.65 g/mL. […] This morphology also appears to provide the product with a slightly higher purity as well. Because of the purity, stability, and color variations in the other morphology (the morphology having a bulk density of about 0.40 to about 0.65 g/mL), in at least some instances a preference exists for the crystalline nicotinamide chloride having a bulk density of about 0.25 to about 0.4 g/mL as it appears to produce higher quality product with more consistency.

NC(=O)c1ccc[n+]([C@@H]2O[C@H](CO)[C@@H](O)[C@H]2O)c1 [nicotinamide riboside, Nicotinamide riboside]
less weight gained than mice on same high-fat diet without nicotinamide riboside [1]: 60%

3-carbamoyl-1-[(2R,3R,4S5R)-3,4-dihydroxy-5-(hydroxymethypoxolan-2-yl]-pyrin-1-ylium chloride
rate of water absorption compared with amorphous material ([2]; 0% to 60% relative humidity, sorption curve FIG. 10): much less prone to absorption at lower relative humidities than the amorphous material | weight increase of sample (water sorption) ([2]; 70% relative humidity): ≤ 1.0% | water uptake (water vapor sorption isotherm) ([2]; relative humidity of up to 60%): not more than 0.5 wt % | water uptake (water vapor sorption isotherm) ([2]; relative humidity of up to 70%): not more than 1.0 wt %

NC(=O)c1ccc[n+]([C@@H]2O[C@H](CO)[C@@H](O)[C@H]2O)c1.[Cl-]
stability to degradation via oxygen or water absorption, compared with morphology of bulk density about 0.40 to about 0.65 g/mL [3]: more stable to degradation via oxygen or water absorption
